Experimental data: publication PMC9236220 (ACS Chemical Biology, 2022)
Like-named read-outs stand apart in the source and are kept apart here.

Columns and labels:
MHV-nLuc = assay: microbe, parasite or virus in culture; assay type: cell-based, mouse hepatitis virus (MHV); settings: Murine coronavirus, read-out: MHV-nLuc replication IC50
kinases = settings: cited from earlier work
[1] = tested on: SARS-CoV-2 spike protein uptake, Calu-3 cells; assay type: cell-based
SHC014-CoV-nLuc = assay type: cell-based, bat
SARS-CoV-2-nLuc = assay type: cell-based
[2] = tested on: SARS-CoV-2 spike protein uptake, HEK293T-ACE2 cells; assay type: cell-based
WIV1-CoV-nLuc = assay type: cell-based, bat
[3] = tested on: SARS-CoV-2 spike protein uptake, Caco-2 cells; assay type: cell-based
SARS-CoV-2 [4] = settings: cited from earlier work
Vero cells = settings: cited from earlier work
A549-ACE2 cells = settings: cited from earlier work
SARS-CoV-2 [5] = settings: cited from earlier work; remark: listed apart in the source

Structure (SMILES)	IC50 (MHV-nLuc)	kinases inhibited at 1 μM (kinases)	decrease in spike protein uptake [1]	effect on SHC014-CoV replication (SHC014-CoV-nLuc)	inhibition of SARS-CoV-2-nLuc replication (SARS-CoV-2-nLuc)	decrease in spike protein uptake [2]	effect on WIV1-CoV replication (WIV1-CoV-nLuc)	decrease in spike protein uptake [3]	antiviral activity pIC50, SARS-CoV-2 in Vero cells (SARS-CoV-2 [4])	IC50 (SARS-CoV-2 [4]; read-out: antiviral activity IC50, SARS-CoV-2 in Vero cells)	cell toxicity (Vero cells)	effect on cell viability of DBT cells (DBT cells)	cell toxicity (A549-ACE2 cells)	inhibition of SARS-CoV-2 infection pIC50, A549-ACE2 cells (SARS-CoV-2 [5])	IC50 (SARS-CoV-2 [5]; read-out: inhibition of SARS-CoV-2 infection IC50, A549-ACE2 cells)
CC(=O)Nc1ccc2ccn(-c3cc(NC4CCC4)n4ncc(C#N)c4n3)c2c1 [Compound 17]	< 1000 nM														
CCC(=O)Nc1cc(Nc2cc(NC3CC3)n3ncc(C#N)c3n2)ccc1C [SGC-CK2-1]	210 nM	3 kinases	> 75%	dose-dependent decreases in viral replication	inhibition of viral replication was observed	70–80%	dose-dependent decreases in viral replication	> 75%							
O=C(O)c1ccc2c(c1)nc(Nc1cccc(Cl)c1)c1ccncc12 [silmitasertib]	630 nM								5.6	2500 nM	cell toxicity at micromolar doses	no effect on cell viability	cell toxicity at micromolar doses	< 5	> 10000 nM
